Values of other authors as cited in patent US20240252546A1, “NEURITE OUTGROWTH PROMOTION KIT AND USE THEREFOR” (KEIO UNIVERSITY, priority 2021, published 2024).

Legend:
[1] = test system: spinal cord injury in the chronic phase; settings: DAPT used on a neurosphere, neurosphere then transplanted into the site of injury; cited from earlier work
[2] = test system: nerve cells induced to differentiate from a neurosphere; settings: nerve cells from a neurosphere on which DAPT has been allowed to act; cited from earlier work

C[C@H](NC(=O)Cc1cc(F)cc(F)c1)C(=O)N[C@H](C(=O)OC(C)(C)C)c1ccccc1 [DAPT]
treatment of spinal cord injury in the chronic phase [1]: can be treated | neurite outgrowth [2]: promoted | phosphorylation of p38 MAPK [2]: increased
